# Test results published in article PMC9181126, “Design, Synthesis, Molecular Docking Analysis and Biological Evaluations of 4-[(Quinolin-4-yl)amino]benzamide Derivatives as Novel Anti-Influenza Virus Agents” (International Journal of Molecular Sciences, 2022).
# Experiments:
# [1] = molecular target: ribonucleoprotein (RNP) of influenza virus (Influenza A virus, UniProt P15659); test: cell-based; conditions: HEK-293T, read-out: RNP Reconstitution Assay Inhibition Rate; for inhibition at 12.5 µM: concentration 12.5 µM; for inhibition at 100 µM: concentration 100 µM
# [2] = system: influenza virus A/WSN/33 (H1N1); test: microbe, parasite or virus in culture; format: cell-based; conditions: MDCK, 72 h; for inhibition at 12.5 µM / inhibition at 25 µM / inhibition at 50 µM / inhibition at 100 µM: H1N1|WSN, read-out: Antiviral activity in CPE assay; for EC50: read-out: Cytopathic Effect Assay (A/WSN/33, H1N1) EC50
# [3] = in vitro; format: cell-based, canine; conditions: dog
# Protocol: (§1) The 3-(4,5-dimethylthiazol-2-yl)-2,5-diphenyltetrazolium bromide (MTT) method was performed to assess the cytotoxicity of target compounds in MDCK cells and HEK293T cells. Firstly, MDCK cells or HEK293T cells were seeded into the 96-well plate. Then, the media containing test compounds replaced the growth media after 48 h. Incubate MDCK cells or HEK293T cells with test compounds for 72 h at 37 °C in a humidified 5% CO2 incubator. Later, MTT solution (5 mg/mL in PBS) was added into each well and plates were incubated for 4 h at 37 °C. Then, add a solubilization solution to lyse cells. Finally, absorbance was read at 620 nm using an ELISA plate reader (Tecan Sunrise) after 3 h of further incubation at 37 °C. We set the values obtained from the wells treated with only DMSO as 100% of viable cells.
# [4] = system: MDCK cells; test: in vitro; format: cell-based, canine; conditions: dog, 72 h
# Protocol: as §1
# [5] = system: influenza virus A/WSN/33 (H1N1); test: Plaque inhibition assay in MDCK cells; format: cell-based; conditions: MDCK, read-out: Plaque Inhibition Assay (A/WSN/33, H1N1) Inhibition Rate; for inhibition at 100 µM: concentration 100 µM
# [6] = system: HEK293T cells; test: in vitro; format: cell-based; conditions: human, 72 h
# Protocol: as §1
# [7] = in vitro; format: cell-based; conditions: human
# Protocol: as §1
# [8] = system: PA-PB1 endonuclease; test: Experimental PA-PB1 inhibitory activity of literature inhibitors (training and test set); format: biochemical, influenza virus; conditions: class of the experimental IC50
# [9] = system: PA-PB1 endonuclease; design: method as in supplement 1-7; conditions: training and test set compounds collected from literature; ref supplement 1-7; read-out: IC50 value Experimental (PA-PB1 endonuclease inhibitors); cited from earlier work
Structure (SMILES),inhibition at 12.5 µM [1],melting point,inhibition at 12.5 µM [2],inhibition at 25 µM [2],inhibition at 50 µM [2],inhibition at 100 µM [2],EC50 [2],CC50 at 72 h [3],MDCK cells survival rate ([4]; 12.5 µmol·L−1),MDCK cells survival rate ([4]; 25 µmol·L−1),MDCK cells survival rate ([4]; 50 µmol·L−1),MDCK cells survival rate ([4]; 100 µmol·L−1),inhibition at 100 µM [5],HEK293T cells survival rate ([6]; 3.125 µmol·L−1),HEK293T cells survival rate ([6]; 6.25 µmol·L−1),HEK293T cells survival rate ([6]; 12.5 µmol·L−1),HEK293T cells survival rate ([6]; 25 µmol·L−1),HEK293T cells survival rate ([6]; 50 µmol·L−1),HEK293T cells survival rate ([6]; 100 µmol·L−1),CC50 at 72 h [7],further results
"O=C(c1ccc(Nc2ccnc3cc(C(F)(F)F)ccc23)cc1)N1CCN(c2ccc(Cl)cc2)CC1 [Compound G17, [4-(4-Chlorophenyl)piperazin-1-yl]{4-{[7-(trifluoromethyl)quinolin-4-yl]amino}phenyl}methanone]",40.2%,242 to 242.9 °C,33.5 ± 1.23%,27.3 ± 3.16%,21.1 ± 1.62%,28.5 ± 7.81%,> 100 µM,> 100 µM,71.49±1.03%,65.78±1.15%,63.22±11.25%,51.32±5.29%,73.5%,86.81±4.81%,89.66±6.31%,78.02±11.06%,62.61±12.04%,52.36±1.02%,59.17±1.33%,> 100 µM,–
"COc1ccccc1OCCNC(=O)c1ccc(Nc2ccnc3c(C)cccc23)cc1 [Compound G20, N-[2-(2-Methoxyphenoxy)ethyl]-4-[(8-methylquinolin-4-yl)amino]benzamide]",6.69%,150.2 to 151.7 °C,72 ± 6.36%,28.6 ± 1.61%,30.9 ± 0.88%,31.1 ± 0.49%,> 100 µM,< 10 µM,45.97±9.1%,8.61±0.42%,8.88±0.51%,8.66±0.17%,–,96.66±8.01%,91.48±3.65%,94.07±9.07%,87.46±21.36%,80.21±1.35%,60.29±0.35%,> 100 µM,inhibition at 6 µM ([5]; concentration 6 µM): 74.3%
"CCNC(=O)c1ccc(Nc2ccnc3cc(C(F)(F)F)ccc23)cc1 [Compound G01, N-Ethyl-4-{[7-(trifluoromethyl)quinolin-4-yl]amino}benzamide]",–,262.8 to 264.5 °C,48 ± 4.04%,56.6 ± 3.96%,53 ± 4.28%,70.9 ± 2.63%,16.5 ± 5.57 µM,> 100 µM,123.45±5.51%,112.08±3.35%,121.65±8.73%,160.62±4.70%,81.6%,91.00±7.40%,90.01±2.87%,93.22±5.27%,92.83±4.26%,88.18±3.27%,94.92±8.61%,> 100 µM,inhibition at 100 µM [1]: 21%
"CC(C)NC(=O)c1ccc(Nc2ccnc3cc(C(F)(F)F)ccc23)cc1 [Compound G02, N-Isopropyl-4-{[7-(trifluoromethyl)quinolin-4-yl]amino}benzamide]",–,243.7 to 245.9 °C,53.6 ± 3.38%,61.6 ± 2.13%,76.7 ± 2.26%,80.6 ± 9.03%,10.1 ± 1.66 µM,> 100 µM,153.38±36.06%,137.54±0.71%,140.08±12.49%,203.79±6.42%,< 10%,95.91±3.00%,87.90±2.52%,85.31±11.55%,74.04±2.91%,75.54±11.17%,66.13±2.32%,> 100 µM,inhibition at 100 µM [1]: 3.1%
Cc1cc(-c2ccccc2)n2nc(C(=O)Nc3sc4c(c3C(=O)O)CCCCC4)nc2n1 [Compound H08],–,–,–,–,–,–,–,–,–,–,–,–,–,–,–,–,–,–,–,–,"Activity scale Experimental [8]: +++ (+++, IC50 10 to 100 μM (active)); IC50 [9]: 19 µM"
